In BindingDB's records for doi:10.1016/j.ejmech.2018.04.030 (Chungnam National University, 2018):

Assay: Inhibition of IL-5 in mouse Y16 cells assessed as reduction in cell proliferation after 48 hrs by WST-1 assay

IC50 [µM]	Compound
> 30	COc1ccc(COc2cccc3c2C(=O)/C(=C/c2ccccc2)C3)cc1
28	O=C1c2c(cccc2OCCc2ccccc2)CC1Cc1cccc(O)c1 (stereo unspecified)
> 30	COc1ccc(COc2cccc3c2C(=O)/C(=C/c2ccc(O)cc2)C3)cc1
> 30	COc1ccc(/C=C2\Cc3cccc(OCc4ccc(OC)cc4)c3C2=O)cc1
> 30	COc1ccc(COc2cccc3c2C(=O)/C(=C/c2ccc(Cl)cc2)C3)cc1
> 30	COc1ccc(COc2cccc3c2C(=O)/C(=C/c2ccc(C)cc2)C3)cc1
> 30	COCOc1ccc(/C=C2\Cc3cccc(OCC4CCCCC4)c3C2=O)cc1
> 30	O=C1/C(=C/c2ccc(O)cc2)Cc2cccc(OCc3ccc([N+](=O)[O-])cc3)c21
> 30	O=C1/C(=C/c2ccc(O)cc2)Cc2cccc(OCC3CCCCC3)c21
> 30	O=C1/C(=C/c2ccc(O)cc2)Cc2cccc(O)c21
> 30	COc1ccc(/C=C2\Cc3cccc(O)c3C2=O)cc1
> 30	O=C1/C(=C/c2ccccc2)Cc2cccc(O)c21
> 30	COc1ccc(/C=C2\Cc3cccc(OCC4CCCCC4)c3C2=O)cc1
> 30	O=C1c2c(O)cccc2CC1Cc1ccc(O)cc1 (stereo unspecified)
> 30	COc1ccc(CC2Cc3cccc(OCC4CCCCC4)c3C2=O)cc1 (stereo unspecified)
20.5	O=C1c2c(cccc2OCC2CCCCC2)CC1Cc1ccc(Cl)cc1 (stereo unspecified)
24.5	Cc1ccc(CC2Cc3cccc(OCC4CCCCC4)c3C2=O)cc1 (stereo unspecified)
4	O=C1c2c(cccc2OCC2CCCCC2)CC1Cc1ccc(O)cc1 (stereo unspecified)
6	O=C1c2c(cccc2OCC2CCCCC2)CC1Cc1cccc(O)c1 (stereo unspecified)
> 30	O=C1c2c(cccc2OCC2CCCCC2)CC1Cc1ccccc1O (stereo unspecified)
18	O=C1c2c(cccc2OCCC2CCCCC2)CC1Cc1ccc(O)cc1 (stereo unspecified)
21	O=C1c2c(cccc2OCc2ccccc2)CC1Cc1ccc(O)cc1 (stereo unspecified)
26	O=C1c2c(cccc2OCCc2ccccc2)CC1Cc1ccc(O)cc1 (stereo unspecified)
> 30	O=C1c2c(cccc2OCCc2ccccc2)CC1Cc1ccccc1O (stereo unspecified)
5	O=c1c(Cc2ccc(O)cc2)coc2cccc(OCC3CCCCC3)c12
17	COCOc1ccc(CC2Cc3cccc(OCC4CCCCC4)c3C2=O)cc1 (stereo unspecified)
